Test results reported in patent US6706664B1, “Benzoxazole compounds, process for the preparation thereof and herbicides” (UBE Industries, Ltd., priority 1999, dated 2004).

What was measured:
Experiment in all cases: Soil treatment test for upland field
Set-up in all cases: key: 0: normal development; 1: Less damaged; 2: Slightly damaged; 3: Moderately damaged; 4: Severely damaged; 5: All killed
Details in all cases: 500 g/ha, glass house 25° C., 3 weeks
corn = format: in vivo
Excerpt: (§1) (0: normal development, 1: Less damaged, 2: Slightly damaged, 3: Moderately damaged, 4: Severely damaged, 5: All killed).
(§2) Wagner pots, each having an area of 1/5000 are, were packed with Ube soil (alluvial soil), and then each seed of corn, soybean, cotton, wheat, solgum, sugar beat, Large crabgrass, barnyardgrass, green foxtail, blackgrass, annual bluegrass, common lambsquartes, livid amaranth and velvetleaf were planted and covered with soil.
(§3) Each wettable powder of the desired compounds (I) shown in Table 1 prepared in accordance with Example 2 was diluted with water containing a surfactant (0.05%) and uniformly sprayed on the surface of each soil so that an effective concentration of the compound (I) in each herbicide became 500 g/ha. These plants were controlled in a glass house at an average temperature of 25° C. for 3 weeks, and then herbicidal effects thereof were investigated.
(§4) The herbicidal effects were evaluated according to the evaluation method described in the above (1).

cotton = format: in vivo
Excerpt: as §1, §2, §3, §4

solgum = format: in vivo
Excerpt: as §1, §2, §3, §4

soybean = format: in vivo
Excerpt: as §1, §2, §3, §4

sugar beat = format: in vivo
Excerpt: as §1, §2, §3, §4

wheat = format: in vivo
Excerpt: as §1, §2, §3, §4

Large crabgrass = format: in vivo, Digitaria adscendens
Excerpt: as §1, §2, §3, §4

barnyardgrass = format: in vivo, Echinochloa crusgalli
Excerpt: as §1, §2, §3, §4

green foxtail = format: in vivo, Setaria viridis
Excerpt: as §1, §2, §3, §4

annual bluegrass = format: in vivo, Poa annua
Excerpt: as §1, §2, §3, §4

common lambsquartes = format: in vivo, Chenopodium album
Excerpt: as §1, §2, §3, §4

livid amaranth = format: in vivo, Amaranthus lividus
Excerpt: as §1, §2, §3, §4

velvetleaf = format: in vivo, Abutilon theophrasti
Excerpt: as §1, §2, §3, §4

blackgrass = format: in vivo, Alopecurus aegualis
Excerpt: as §1, §2, §3, §4

Row | SMILES | Effects Corn (corn) | Effects Cotton (cotton) | Effects Solgum (solgum) | Effects Soybean (soybean) | Effects Sugar beat (sugar beat) | Effects Wheat (wheat) | Effects Large crabgrass (Large crabgrass) | Effects Barnyardgrass (barnyardgrass) | Effects Green foxtail (green foxtail) | Effects Annual bluegrass (annual bluegrass) | Effects Common lambsquarters (common lambsquartes) | Effects Livid amaranth (livid amaranth) | Effects Velvetleaf (velvetleaf) | Effects Blackgrass (blackgrass)
1 | CCC(Oc1cccc(C(F)(F)F)c1)c1nc2cc(S(C)(=O)=O)ccc2o1 (stereo not drawn) [Compound 216] | 0 | 0 | 0 | 0 | 5 | 0 | 4 | 3 | 5 | 2 | 5 | 5 | 3 | –
2 | CCC(Oc1ccc(F)c(C(F)(F)F)c1)c1nc2cc(S(C)(=O)=O)c(C)cc2o1 (stereo not drawn) [Compound 487] | 0 | 0 | 0 | 0 | 5 | 0 | 5 | 2 | 3 | 4 | 4 | 5 | 3 | –
3 | CCC(Oc1ccc(F)c(C(F)(F)F)c1)c1nc2cc(Cl)c([N+](=O)[O-])cc2o1 (stereo not drawn) [Compound 334, 1-(5-chloro-6-nitrobenzoxazol-2-yl)-1-(4-fluoro-3-(trifluoromethyl)phenoxy)propane] | 0 | 1 | 1 | 0 | 3 | 2 | 5 | 3 | 5 | 4 | 2 | 5 | – | 4
4 | CCC(Oc1cccc(C#N)c1)c1nc2cc(Cl)c(C)cc2o1 (stereo not drawn) [Compound 481] | 0 | 0 | 0 | 0 | 3 | 0 | 5 | – | 4 | 2 | 2 | 4 | 3 | –
5 | CCC(Oc1cccc(C(F)(F)F)c1)c1nc2ccc(C(F)(F)F)cc2o1 (stereo not drawn) [Compound 94] | 0 | – | 0 | 0 | 2 | 0 | 5 | 3 | 4 | 1 | 1 | 5 | 0 | –
6 | CCCC(Oc1cccc(C#N)c1)c1nc2cc(Cl)c(C)cc2o1 (stereo not drawn) [Compound 484] | 1 | 0 | 0 | 0 | 5 | 0 | 5 | – | 5 | 5 | 5 | 5 | 5 | –
7 | CCC(Oc1cccc(C#N)c1)c1nc2cc(S(C)(=O)=O)ccc2o1 (stereo not drawn) [Compound 507] | 0 | 0 | 0 | 0 | 0 | 0 | – | – | 3 | – | 5 | 5 | – | –
8 | CCC(Oc1ccc(F)c(C(F)(F)F)c1)c1nc2cc(S(C)(=O)=O)ccc2o1 (stereo not drawn) [Compound 215] | 0 | 1 | 0 | 0 | 5 | 0 | 5 | – | 4 | 3 | 4 | 5 | 5 | –
9 | CCCC(Oc1cccc(C#N)c1)c1nc2cc(S(C)(=O)=O)ccc2o1 (stereo not drawn) [Compound 508] | 0 | 0 | 0 | 0 | 4 | 0 | 4 | – | 5 | 2 | 3 | 5 | 3 | –
10 | CCC(Oc1ccc(Cl)c(C#N)c1)c1nc2cc(S(C)(=O)=O)ccc2o1 (stereo not drawn) [Compound 509] | 0 | 0 | 0 | 0 | 5 | 0 | 2 | – | 3 | – | 5 | 5 | 3 | –
11 | CCC(Oc1cccc(C(F)(F)F)c1)c1nc2cc(I)ccc2o1 (stereo not drawn) [Compound 172] | 0 | 0 | 0 | 0 | 0 | 0 | 5 | – | 5 | 3 | – | 5 | – | 1
12 | CCC(Oc1ccc(F)c(C(F)(F)F)c1)c1nc2ccc([N+](=O)[O-])cc2o1 (stereo not drawn) [Compound 39] | 0 | 1 | 0 | 0 | 2 | 0 | 4 | – | 4 | 4 | 3 | 5 | – | –
